Assay results reported in patent US8618289B2 (Ambit Biosciences Corporation, priority 2008, dated 2013).

Experiments:
[1] = tested on: MEK1 phosphorylation in the A375 human melanoma cell line; experiment: cells; conditions: A-375, read-out: pMEK IC50
[2] = target: RAF kinases (Homo sapiens, UniProt P15056, V600E); experiment: biochemical
Procedure: (§1) Competition binding assays used herein were developed, validated and performed as described in Fabian et al., Nature Biotechnology 2005, 23, 329-336. […] The liganded beads were blocked with excess biotin and washed with blocking buffer (SeaBlock (Pierce), 1% BSA, 0.05% Tween 20, 1 mM DTT) to remove unbound ligand and to reduce non-specific binding. […] Test compounds were prepared as 100× stocks in DMSO and rapidly diluted into the aqueous environment. DMSO was added to control assays lacking a test compound. Primary screen interactions were performed in polypropylene 384-well plates in a final volume of 34 μt, while Kd determinations were performed in polystyrene 96-well plates in a final volume of 135 pt. […] The kinase concentration in the eluates was measured by quantitative PCR. Each kinase was tested individually against each compound. Kds were determined using eleven serial threefold dilutions. A selectivity score, which is a quantitative measure of selectivity of a compound against a panel of enzymes, may be calculated for a compound by dividing the number of enzymes for which a compound meets a set criteria, (for example, a binding constant of 100 nM or less), by the total number of enzymes tested. […] (Note, for those compounds tested in a larger kinase panel, as indicated by an asterisk (*) next to the S35 score, the divisor is 321 (i.e. the larger panel contains 321 distinct kinases, excluding mutant variants.)).

[3] = target: RAF kinases (Homo sapiens, UniProt P04049); experiment: biochemical
Procedure: as §1

[4] = target: RAF kinases (Homo sapiens, UniProt P15056); experiment: biochemical
Procedure: as §1

[5] = tested on: A375 cells; experiment: cells; conditions: Homo sapiens, A-375, read-out: A375 Viability EC50

Chain of RAF kinases (Homo sapiens, UniProt P15056, V600E) (P15056 whole entry V600E): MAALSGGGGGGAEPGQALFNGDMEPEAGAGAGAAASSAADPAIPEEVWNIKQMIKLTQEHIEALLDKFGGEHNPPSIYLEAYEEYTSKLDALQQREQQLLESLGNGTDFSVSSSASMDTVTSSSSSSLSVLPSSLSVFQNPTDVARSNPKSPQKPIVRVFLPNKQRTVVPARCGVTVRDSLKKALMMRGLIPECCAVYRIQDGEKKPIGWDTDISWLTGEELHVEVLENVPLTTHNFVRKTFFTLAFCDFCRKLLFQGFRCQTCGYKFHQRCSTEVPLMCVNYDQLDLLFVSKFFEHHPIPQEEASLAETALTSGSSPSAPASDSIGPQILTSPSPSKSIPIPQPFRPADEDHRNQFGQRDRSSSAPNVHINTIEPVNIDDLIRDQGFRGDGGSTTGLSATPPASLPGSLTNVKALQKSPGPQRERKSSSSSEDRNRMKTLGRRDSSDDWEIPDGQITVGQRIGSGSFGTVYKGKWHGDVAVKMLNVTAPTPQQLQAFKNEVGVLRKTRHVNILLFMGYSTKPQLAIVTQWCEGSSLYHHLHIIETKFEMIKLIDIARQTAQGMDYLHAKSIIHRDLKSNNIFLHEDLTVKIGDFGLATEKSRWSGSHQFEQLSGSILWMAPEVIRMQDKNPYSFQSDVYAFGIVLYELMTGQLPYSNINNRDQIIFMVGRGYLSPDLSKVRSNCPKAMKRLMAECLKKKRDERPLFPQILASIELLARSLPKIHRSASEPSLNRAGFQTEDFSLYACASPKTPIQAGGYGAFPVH
Chain of RAF kinases (Homo sapiens, UniProt P04049) (P04049 whole entry): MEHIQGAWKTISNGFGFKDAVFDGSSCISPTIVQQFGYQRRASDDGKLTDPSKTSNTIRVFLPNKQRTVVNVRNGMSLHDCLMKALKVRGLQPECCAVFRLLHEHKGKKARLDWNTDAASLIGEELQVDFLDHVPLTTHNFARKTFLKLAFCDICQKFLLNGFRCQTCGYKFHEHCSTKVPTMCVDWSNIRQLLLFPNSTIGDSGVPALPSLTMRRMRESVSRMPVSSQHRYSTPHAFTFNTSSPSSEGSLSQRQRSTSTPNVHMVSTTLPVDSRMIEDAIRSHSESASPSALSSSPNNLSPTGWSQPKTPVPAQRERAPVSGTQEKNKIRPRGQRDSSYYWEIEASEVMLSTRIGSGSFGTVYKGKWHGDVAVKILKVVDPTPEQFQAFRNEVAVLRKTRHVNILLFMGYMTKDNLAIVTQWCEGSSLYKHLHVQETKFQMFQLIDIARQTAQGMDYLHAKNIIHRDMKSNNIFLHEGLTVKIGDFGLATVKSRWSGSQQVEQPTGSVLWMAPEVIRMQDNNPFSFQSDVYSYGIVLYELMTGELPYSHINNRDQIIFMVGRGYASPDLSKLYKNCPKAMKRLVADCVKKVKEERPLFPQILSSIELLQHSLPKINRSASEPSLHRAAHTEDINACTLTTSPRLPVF
Chain of RAF kinases (Homo sapiens, UniProt P15056) (P15056 whole entry): as the sequence (P15056 whole entry V600E) above, with E600V counted along it

| Structure (SMILES) | IC50 [1] [nM] | Kd [2] [nM] | Kd [3] [nM] | Kd [4] [nM] | EC50 [5] [nM] |
| --- | --- | --- | --- | --- | --- |
| COCCOc1cc(NC(=O)Nc2cccc(Oc3ncnc4cc(OCCOC)c(OC)cc34)c2)cc(C(F)(F)F)c1 [Ex 117, 1-(3-(6-methoxy-7-(2-methoxyethoxy)quinazolin-4-yloxy)phenyl)-3-(3-(2-methoxyethoxy)-5-(trifluoromethyl)phenyl)urea] | > 1000 | 250 to 500 | 250 to 500 | 500 to 1000 | > 1000 |
| COc1cc2ncnc(Oc3cccc(NC(=O)Nc4cc(C(C)(C)C#N)no4)c3)c2cc1OC [Ex 125, 1-(3-(2-cyanopropan-2-yl)isoxazol-5-yl)-3-(3-(6,7-dimethoxyquinazolin-4-yloxy)phenyl)urea] | 250 to 500 | < 250 | 250 to 500 | 250 to 500 | > 1000 |
| COc1cc2ncnc(Oc3cccc(NC(=O)Nc4cc(C(C)(C)F)no4)c3)c2cc1OC [Ex 126, 1-(3-(6,7-dimethoxyquinazolin-4-yloxy)phenyl)-3-(3-(2-fluoropropan-2-yl)isoxazol-5-yl)urea] | < 250 | < 250 | < 250 | 250 to 500 | 500 to 1000 |
| COc1cc2ncnc(Oc3cccc(NC(=O)Nc4cc(C5(C(F)(F)F)CC5)nn4-c4ccccc4)c3)c2cc1OC [Ex 137, 1-(3-(6,7-dimethoxyquinazolin-4-yloxy)phenyl)-3-(1-phenyl-3-(1-(trifluoromethyl)cyclopropyl)-1H-pyrazol-5-yl)urea] | < 250 | 500 to 1000 | > 1000 | > 1000 | 500 to 1000 |
| COc1cc2ncnc(Oc3cccc(NC(=O)Nc4ccc(C(F)(F)F)c(F)c4)c3)c2cc1OC [Ex 150, 1-(3-(6,7-dimethoxyquinazolin-4-yloxy)phenyl)-3-(3-fluoro-4-(trifluoromethyl)phenyl)urea] | > 1000 | 250 to 500 | 500 to 1000 | 500 to 1000 | > 1000 |
| COc1cc2ncnc(Oc3cccc(NC(=O)Nc4cc(C(C)(CF)CF)no4)c3)c2cc1OC [Ex 159, 1-[3-(1,3-difluoro-2-methylpropan-2-yl)isoxazol-5-yl]-3-[3-(6,7-dimethoxyquinazolin-4-yloxy]phenyl)urea] | 250 to 500 | 250 to 500 | 500 to 1000 | 500 to 1000 | > 1000 |
| COc1cc2ncnc(Sc3cccc(NC(=O)Nc4ccc(C(F)(F)F)cc4)c3)c2cc1OC [Ex 184, 1-(3-(6,7-dimethoxyquinazolin-4-ylthio)phenyl)-3-(4-(trifluoromethyl)phenyl)urea] | 250 to 500 | 250 to 500 | 250 to 500 | 500 to 1000 | 500 to 1000 |
| CCOC(C)(C)c1cc(NC(=O)Nc2cccc(Sc3ncnc4cc(OC)c(OC)cc34)c2)n(-c2ccccc2)n1 [Ex 197, 1-[3-(6,7-dimethoxyquinazolin-4-ylthio)phenyl]-3-[3-(2-ethoxypropan-2-yl)-1-phenyl-1H-pyrazol-5-yl]urea] | 250 to 500 | 250 to 500 | > 1000 | > 1000 | > 1000 |
| COCCOc1cc2ncnc(Oc3cccc(NC(=O)Nc4cc(-c5ccccc5)on4)c3)c2cc1OC [Ex 203, 1-(3-(6-methoxy-7-(2-methoxyethoxy)quinazolin-4-yloxy)phenyl)-3-(5-phenylisoxazol-3-yl)urea] | > 1000 | > 1000 | > 1000 | > 1000 | > 1000 |
| COCCOc1cc2ncnc(Oc3cccc(NC(=O)Nc4cc(C(C)(C)C)nn4C)c3)c2cc1OC [Ex 209, 1-(3-tert-butyl-1-methyl-1H-pyrazol-5-yl)-3-(3-(6-methoxy-7-(2-methoxyethoxy)quinazolin-4-yloxy)phenyl)urea] | 500 to 1000 | 250 to 500 | > 1000 | > 1000 | > 1000 |
| COCCOc1cc2ncnc(Oc3cccc(NC(=O)Nc4cc(C(C)(F)F)no4)c3)c2cc1OC [Ex 211, 1-(3-(1,1-difluoroethyl)isoxazol-5-yl)-3-(3-(6-methoxy-7-(2-methoxyethoxy)quinazolin-4-yloxy)phenyl)urea] | > 1000 | 250 to 500 | 250 to 500 | 500 to 1000 | > 1000 |
| COCCOc1cc2ncnc(Oc3cccc(NC(=O)Nc4cc(C(C)(C)COC)on4)c3)c2cc1OC [Ex 217, 1-(5-(1-methoxy-2-methylpropan-2-yl)isoxazol-3-yl)-3-(3-(6-methoxy-7-(2-methoxyethoxy)quinazolin-4-yloxy)phenyl)urea] | 250 to 500 | < 250 | 250 to 500 | 250 to 500 | > 1000 |
| COCCOc1cc2ncnc(Oc3cccc(NC(=O)Nc4cc(C(F)(F)F)nn4-c4ccccc4)c3)c2cc1OC [Ex 221, 1-{3-[6-methoxy-7-(2-methoxyethoxy)quinazolin-4-yloxy]phenyl}-3-[1-phenyl-3-(trifluoromethyl)-1H-pyrazol-5-yl]urea] | 250 to 500 | 250 to 500 | > 1000 | > 1000 | 500 to 1000 |
| COCCOc1cc2ncnc(Oc3cccc(NC(=O)Nc4ccc(C(F)(F)F)c(F)c4)c3)c2cc1OC [Ex 222, 1-(3-fluoro-4-(trifluoromethyl)phenyl)-3-(3-(6-methoxy-7-(2-methoxyethoxy)quinazolin-4-yloxy)phenyl)urea] | > 1000 | 250 to 500 | 250 to 500 | 500 to 1000 | > 1000 |
| COCCOc1cc2ncnc(Sc3cccc(NC(=O)Nc4cc(C(F)(F)F)nn4-c4ccc(F)cc4)c3)c2cc1OC [Ex 242, 1-[1-(4-fluorophenyl)-3-(trifluoromethyl)-1H-pyrazol-5-yl]-3-{3-[6-methoxy-7-(2-methoxyethoxy)quinazolin-4-ylthio]phenyl}urea] | 500 to 1000 | > 1000 | > 1000 | > 1000 | > 1000 |
| COc1cc2c(Sc3cccc(NC(=O)Nc4ccc(OC)c(C(F)(F)F)c4)c3)ncnc2cc1OCCN1CCOCC1 [Ex 249, 1-(4-methoxy-3-(trifluoromethyl)phenyl)-3-(3-(6-methoxy-7-(2-morpholinoethoxy)quinazolin-4-ylthio)phenyl)urea] | 500 to 1000 | 250 to 500 | 500 to 1000 | 500 to 1000 | > 1000 |
| COc1cc2ncnc(Sc3cccc(NC(=O)Nc4cc(C(C)(C)C(F)(F)F)on4)c3)c2cc1OC [Ex 261, 1-(3-(6,7-dimethoxyquinazolin-4-ylthio)phenyl)-3-(5-(1,1,1-trifluoro-2-methylpropan-2-yl)isoxazol-3-yl)urea] | < 250 | < 250 | < 250 | 250 to 500 | > 1000 |
| COCCOc1cc2ncnc(Sc3cccc(NC(=O)Nc4cccc(C(C)(C)C#N)c4)c3)c2cc1OC [Ex 281, 1-(3-(2-cyanopropan-2-yl)phenyl)-3-(3-(6-methoxy-7-(2-methoxyethoxy)quinazolin-4-ylthio)phenyl)urea] | 250 to 500 | < 250 | < 250 | < 250 | > 1000 |
| CCOc1cc2c(Oc3cccc(NC(=O)Nc4cc(C(F)(F)F)nn4-c4ccccc4)c3)ncnc2cc1OC [Ex 391, 1-(3-(6-ethoxy-7-methoxyquinazolin-4-yloxy)phenyl)-3-(1-phenyl-3-(trifluoromethyl)-1H-pyrazol-5-yl)urea] | < 250 | < 250 | 250 to 500 | 250 to 500 | < 250 |
